Data reported in US20240124441A1, “POLYMORPH OF LATREPIRDINE DIHYDROCHLORIDE” (BIGESPAS LTD., priority 2021, published 2024).
Where two headings read alike, the source gives them in different places.

Key:
[1] = Bioavailability study: Latrepirdine concentration in blood serum after oro-gastric gavage
Description: (§1) Those crystalline polymorphs and DMB-I were used in an animal study to evaluate absorption of crystalline forms of Latrepirdine from gastrointestinal tract into blood serum and brain tissues of the animals. Male Wistar rats were used in animal study. Rats were randomly divided into 5 groups, each group containing 28 animals, for administration of respective polymorphic forms of Latrepirdine. Respective polymorphic form of Latrepirdine was administered by oro-gastric gavage as a suspension in corn oil at a dose of 10 mg/kg. Animals were euthanized at 15, 30, 60, and 120 min after administration of Latrepirdine (7 animals at each timepoint) followed by collection of blood serum and brain tissue samples that were analyzed for Latrepirdine content by LCMS. Analyses were performed using Prominence LCMS-850 equipped with Kinetex C18 Phenomenex column. Statistical bi-factorial ANOVA analysis of analytical data was performed using Statistica-7.1. software.

[2] = Bioavailability study: Latrepirdine concentration in brain tissue after oro-gastric gavage; conditions: for Concentration of Latrepirdine in brain tissue: 10 mg/kg oro-gastric gavage, suspension in corn oil, rat, 10 mg/kg
Description: as §1

[3] = rat, in vivo, po
Description: as §1

[4] = rat, in vivo, po; remark: listed apart in the source
Description: as §1

Cc1ccc2c(c1)c1c(n2CCc2ccc(C)nc2)CCN(C)C1 [Polymorph A, 2,8-dimethyl-5-[2-(6-methylpyridin-3-yl)ethyl]-3,4-dihydro-1H-pyrido[4,3-b]indole]
Concentration of Latrepirdine in blood serum ([1]; 15 min after administration, 10 mg/kg oro-gastric gavage, suspension in corn oil, rat, listed as A, 10 mg/kg): 2.0 ng/mL
Concentration of Latrepirdine in blood serum ([1]; 60 min after administration, 10 mg/kg oro-gastric gavage, suspension in corn oil, rat, listed as A, 10 mg/kg): 3.9 ng/mL
Concentration of Latrepirdine in blood serum ([1]; 120 min after administration, 10 mg/kg oro-gastric gavage, suspension in corn oil, rat, listed as A, 10 mg/kg): 2.0 ng/mL
concentration at 30 min ([1]; male, Wistar, rat, serum, oral, 10 mg/kg, Concentration of Latrepirdine in blood serum, 30 min after administration, 10 mg/kg oro-gastric gavage, suspension in corn oil, rat): 7 ng/mL
Concentration of Latrepirdine in brain tissue ([2]; 15 min after administration, listed as A): 22.4 ng/mL
Concentration of Latrepirdine in brain tissue ([2]; 30 min after administration, listed as A): 5.6 ng/mL
Concentration of Latrepirdine in brain tissue ([2]; 60 min after administration, listed as A): 76.8 ng/mL
Concentration of Latrepirdine in brain tissue ([2]; 120 min after administration, listed as A): 24.4 ng/mL

Cc1ccc2c(c1)c1c(n2CCc2ccc(C)nc2)CCN(C)C1 [Polymorph B, 2,8-dimethyl-5-[2-(6-methylpyridin-3-yl)ethyl]-3,4-dihydro-1H-pyrido[4,3-b]indole]
Concentration of Latrepirdine in blood serum ([1]; 15 min after administration, 10 mg/kg oro-gastric gavage, suspension in corn oil, rat, listed as B, 10 mg/kg): 5.9 ng/mL
Concentration of Latrepirdine in blood serum ([1]; 30 min after administration, 10 mg/kg oro-gastric gavage, suspension in corn oil, rat, listed as B, 10 mg/kg): 5.6 ng/mL
Concentration of Latrepirdine in blood serum ([1]; 60 min after administration, 10 mg/kg oro-gastric gavage, suspension in corn oil, rat, listed as B, 10 mg/kg): 7.4 ng/mL
Concentration of Latrepirdine in blood serum ([1]; 120 min after administration, 10 mg/kg oro-gastric gavage, suspension in corn oil, rat, listed as B, 10 mg/kg): 1.0 ng/mL
Concentration of Latrepirdine in brain tissue ([2]; 15 min after administration, listed as B): 23.5 ng/mL
Concentration of Latrepirdine in brain tissue ([2]; 30 min after administration, listed as B): 34.2 ng/mL
Concentration of Latrepirdine in brain tissue ([2]; 60 min after administration, listed as B): 54.4 ng/mL
Concentration of Latrepirdine in brain tissue ([2]; 120 min after administration, listed as B): 29.7 ng/mL

Cc1ccc2c(c1)c1c(n2CCc2ccc(C)nc2)CCN(C)C1 [Polymorph C, 2,8-dimethyl-5-[2-(6-methylpyridin-3-yl)ethyl]-3,4-dihydro-1H-pyrido[4,3-b]indole]
Concentration of Latrepirdine in blood serum ([1]; 15 min after administration, 10 mg/kg oro-gastric gavage, suspension in corn oil, rat, listed as C, 10 mg/kg): 7.4 ng/mL
Concentration of Latrepirdine in blood serum ([1]; 30 min after administration, 10 mg/kg oro-gastric gavage, suspension in corn oil, rat, listed as C, 10 mg/kg): 6.8 ng/mL
Concentration of Latrepirdine in blood serum ([1]; 60 min after administration, 10 mg/kg oro-gastric gavage, suspension in corn oil, rat, listed as C, 10 mg/kg): 6.7 ng/mL
Concentration of Latrepirdine in blood serum ([1]; 120 min after administration, 10 mg/kg oro-gastric gavage, suspension in corn oil, rat, listed as C, 10 mg/kg): 7.0 ng/mL
Concentration of Latrepirdine in brain tissue ([2]; 15 min after administration, listed as C): 25.1 ng/mL
Concentration of Latrepirdine in brain tissue ([2]; 30 min after administration, listed as C): 15.0 ng/mL
Concentration of Latrepirdine in brain tissue ([2]; 60 min after administration, listed as C): 32.1 ng/mL
Concentration of Latrepirdine in brain tissue ([2]; 120 min after administration, listed as C): 39.1 ng/mL

Cc1ccc2c(c1)c1c(n2CCc2ccc(C)nc2)CCN(C)C1 [Polymorph DMB-I, 2,8-dimethyl-5-[2-(6-methylpyridin-3-yl)ethyl]-3,4-dihydro-1H-pyrido[4,3-b]indole]
Concentration of Latrepirdine in blood serum ([1]; 15 min after administration, 10 mg/kg oro-gastric gavage, suspension in corn oil, rat, listed as DMB-I, 10 mg/kg): 12.8 ng/mL
Concentration of Latrepirdine in blood serum ([1]; 30 min after administration, 10 mg/kg oro-gastric gavage, suspension in corn oil, rat, listed as DMB-I, 10 mg/kg): 10.0 ng/mL
Concentration of Latrepirdine in blood serum ([1]; 60 min after administration, 10 mg/kg oro-gastric gavage, suspension in corn oil, rat, listed as DMB-I, 10 mg/kg): 9.7 ng/mL
Concentration of Latrepirdine in blood serum ([1]; 120 min after administration, 10 mg/kg oro-gastric gavage, suspension in corn oil, rat, listed as DMB-I, 10 mg/kg): 10.4 ng/mL
Cmax exceeds the Cmax of other polymorphic forms by ([1]; blood plasma, intragastric administration, versus the other four polymorphic forms): 12-240%
Tmax ([1]; male, Wistar, rat, plasma, po, 10 mg/kg): 15 min
Median values of Cmax compared among the five tested polymorphic forms [3]: highest value
Concentration of Latrepirdine in brain tissue ([2]; 15 min after administration, listed as DMB-I): 45.1 ng/mL
Concentration of Latrepirdine in brain tissue ([2]; 30 min after administration, listed as DMB-I): 26.8 ng/mL
Concentration of Latrepirdine in brain tissue ([2]; 60 min after administration, listed as DMB-I): 106.0 ng/mL
Concentration of Latrepirdine in brain tissue ([2]; 120 min after administration, listed as DMB-I): 49.8 ng/mL
Cmax exceeds the Cmax of other polymorphic forms by ([2]; brain tissue, intragastric administration, versus the other four polymorphic forms): 32-260%
Median values of Cmax compared among the five tested polymorphic forms [4]: highest value

Cc1ccc2c(c1)c1c(n2CCc2ccc(C)nc2)CCN(C)C1 [Polymorph F, 2,8-dimethyl-5-[2-(6-methylpyridin-3-yl)ethyl]-3,4-dihydro-1H-pyrido[4,3-b]indole]
Concentration of Latrepirdine in blood serum ([1]; 15 min after administration, 10 mg/kg oro-gastric gavage, suspension in corn oil, rat, listed as F, 10 mg/kg): 4.8 ng/mL
Concentration of Latrepirdine in blood serum ([1]; 30 min after administration, 10 mg/kg oro-gastric gavage, suspension in corn oil, rat, listed as F, 10 mg/kg): 6.3 ng/mL
Concentration of Latrepirdine in blood serum ([1]; 60 min after administration, 10 mg/kg oro-gastric gavage, suspension in corn oil, rat, listed as F, 10 mg/kg): 9.4 ng/mL
Concentration of Latrepirdine in blood serum ([1]; 120 min after administration, 10 mg/kg oro-gastric gavage, suspension in corn oil, rat, listed as F, 10 mg/kg): 3.6 ng/mL
Concentration of Latrepirdine in brain tissue ([2]; 15 min after administration, listed as F): 20.2 ng/mL
Concentration of Latrepirdine in brain tissue ([2]; 30 min after administration, listed as F): 32.2 ng/mL
Concentration of Latrepirdine in brain tissue ([2]; 60 min after administration, listed as F): 68.5 ng/mL
Concentration of Latrepirdine in brain tissue ([2]; 120 min after administration, listed as F): 45.1 ng/mL
